Entries after “also recorded” stand apart in the source; their conditions may differ.
Columns and labels:
[1] = system: CCI-exposed rats; test: von Frey test; conditions: for Response (ED50) with 95% confidence limits, von Frey: neuropathic pain
[2] = system: naïve rats; test: Tail-flick test; conditions: for effect in tail-flick test: i.t., 30 min after administration; for effect in tail-flick test / toxic effect / Response (ED50) with 95% confidence limits, Tail-flick: naïve rats; for antinociceptive effect in acute pain: 1 nmol i.t.; for toxic effect: 9.5 nmol i.t.; for Response (ED50) with 95% confidence limits, Tail-flick: acute pain; for duration of antinociceptive effect: after intrathecal administration, data not shown
[3] = target: DOR (Rattus norvegicus, UniProt P33533); test: Opioid receptor binding assay, [3H]DSLET displacement
Sequence of DOR (Rattus norvegicus, UniProt P33533) (P33533 whole entry): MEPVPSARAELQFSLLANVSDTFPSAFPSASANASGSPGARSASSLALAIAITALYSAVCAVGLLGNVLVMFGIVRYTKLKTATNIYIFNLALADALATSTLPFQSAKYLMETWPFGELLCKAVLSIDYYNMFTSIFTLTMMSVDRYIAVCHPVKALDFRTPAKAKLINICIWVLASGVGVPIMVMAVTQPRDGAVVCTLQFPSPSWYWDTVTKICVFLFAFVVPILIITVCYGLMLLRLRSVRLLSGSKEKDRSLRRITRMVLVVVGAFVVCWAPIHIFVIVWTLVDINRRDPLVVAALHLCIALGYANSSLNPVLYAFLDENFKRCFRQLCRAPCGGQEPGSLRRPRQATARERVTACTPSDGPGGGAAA

[4] = target: MOR (Rattus norvegicus, UniProt P33535); test: Opioid receptor binding assay, [3H]DAMGO displacement; conditions: vs 4 (Gly4 replaced by β-Ala)
Sequence of MOR (Rattus norvegicus, UniProt P33535) (P33535 whole entry): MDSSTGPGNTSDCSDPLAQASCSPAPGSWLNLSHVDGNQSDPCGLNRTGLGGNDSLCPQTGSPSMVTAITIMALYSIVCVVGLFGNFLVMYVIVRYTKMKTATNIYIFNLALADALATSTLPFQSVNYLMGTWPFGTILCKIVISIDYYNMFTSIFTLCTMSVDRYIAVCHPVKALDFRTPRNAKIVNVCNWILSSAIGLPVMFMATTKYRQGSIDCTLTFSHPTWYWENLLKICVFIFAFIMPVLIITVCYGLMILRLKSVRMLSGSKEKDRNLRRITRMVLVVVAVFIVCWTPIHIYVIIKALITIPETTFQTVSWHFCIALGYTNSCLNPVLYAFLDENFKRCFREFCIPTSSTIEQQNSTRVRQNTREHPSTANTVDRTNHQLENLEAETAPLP

[5] = target: T1, hNK1R (Homo sapiens, UniProt P25103); test: hNK1/CHO cell membrane radioligand binding assay
T1 sequence (P25103 whole entry): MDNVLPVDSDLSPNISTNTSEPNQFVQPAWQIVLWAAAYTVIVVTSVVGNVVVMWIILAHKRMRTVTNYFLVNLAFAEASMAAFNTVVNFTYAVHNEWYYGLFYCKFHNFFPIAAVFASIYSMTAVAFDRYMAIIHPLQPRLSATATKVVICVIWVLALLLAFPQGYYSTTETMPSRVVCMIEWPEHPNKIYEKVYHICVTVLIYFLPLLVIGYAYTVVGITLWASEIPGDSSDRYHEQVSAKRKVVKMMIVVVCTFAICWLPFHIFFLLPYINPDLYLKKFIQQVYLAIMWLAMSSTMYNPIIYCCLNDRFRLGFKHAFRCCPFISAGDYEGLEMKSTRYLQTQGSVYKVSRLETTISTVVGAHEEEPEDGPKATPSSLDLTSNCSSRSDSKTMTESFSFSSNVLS

[6] = system: CCI-exposed rats; test: Cold plate test; conditions: for Response (ED50) with 95% confidence limits, Cold plate: neuropathic pain
[7] = system: mice; conditions: 3.8 μmol/kg i.v., previous study; cited from earlier work
[8] = system: CCI-exposed rats; test: Cross tolerance with morphine in neuropathic pain model; assay type: in vivo, rat; conditions: for cross tolerance with morphine: single dose of morphine 3.5 nmol on day 13 after repeated hybrid 1 nmol i.t.
[9] = system: mice; test: Tail-flick test
[10] = system: MOR; test: Functional GPI; assay type: biochemical, guinea pig
[11] = target: DOR (Mus musculus, UniProt P32300); test: Functional mouse vas deferens; assay type: biochemical; conditions: from 22 to 33, MVD assay
Sequence of DOR (Mus musculus, UniProt P32300) (P32300 whole entry): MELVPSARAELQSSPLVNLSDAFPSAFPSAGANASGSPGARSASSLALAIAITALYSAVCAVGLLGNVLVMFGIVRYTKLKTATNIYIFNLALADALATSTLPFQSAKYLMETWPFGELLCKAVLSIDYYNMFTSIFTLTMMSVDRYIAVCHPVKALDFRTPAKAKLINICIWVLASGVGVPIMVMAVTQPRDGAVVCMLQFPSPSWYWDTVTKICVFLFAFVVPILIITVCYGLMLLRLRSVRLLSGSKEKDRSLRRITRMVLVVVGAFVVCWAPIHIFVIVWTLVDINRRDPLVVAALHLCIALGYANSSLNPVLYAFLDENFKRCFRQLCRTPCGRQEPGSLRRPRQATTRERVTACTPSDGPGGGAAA

[12] = target: T1, hNK1R; test: Functional NK1R assay; assay type: cell-based; conditions: compared to lead compound 4
[13] = system: CCI-exposed rats; test: Tolerance development in neuropathic pain model; assay type: in vivo, rat; conditions: von Frey and cold plate, repeated i.t. 1 nmol

With Cc1cc(O)cc(C)c1C[C@H](N)C(=O)N[C@H](CCCNC(=N)N)C(=O)N[C@H]1Cc2ccccc2CN(CC(N)=O)C1=O [Compound 7, H-Dmt-D-Arg-Aba-Gly-NH2] the toxic effect ([1]; 1 nmol i.t., CCI rats) was “toxic effect” and the “effect in tail-flick test” value [2] was “increase the nociceptive threshold”.

For Cc1cc(O)cc(C)c1C[C@H](N)C(=O)N[C@H](CCCNC(=N)N)C(=O)N[C@H]1Cc2ccccc2CN(CCC(=O)N(C)Cc2cc(C(F)(F)F)cc(C(F)(F)F)c2)C1=O [Compound 21, H-Dmt-D-Arg-Aba-β-Ala-NMe-3’,5’-(CF3)2-Bn], the “improvement of DOR binding” value ([3]; vs 4 (Gly4 replaced by β-Ala)) was 5 fold, the “improvement of MOR binding” value [4] was 5 fold and the “loss in NK1R binding” value ([5]; vs 4) was 120 fold.

For Cc1cc(O)cc(C)c1C[C@H](N)C(=O)N[C@H](CCCNC(=N)N)C(=O)N[C@H]1Cc2ccccc2CN(CC(=O)N(C)Cc2cc(C(F)(F)F)cc(C(F)(F)F)c2)C1=O [Compound 4, H-Dmt-D-Arg-Aba-Gly-NMe-3’,5’-(CF3)2-Bn], the toxic effect ([1]; 1 nmol i.t., CCI rats) was “not observed”, the “attenuation of allodynia, von Frey” value ([1]; 1 nmol i.t., day 7 after CCI) was 60 % MPE and the toxic effect ([1]; highest investigated dose 9.5 nmol i.t., CCI rats, not shown) was “toxic effect”. The “Response (ED50) with 95% confidence limits, von Frey” value ([1]; day 7 after CCI) was 1.05 (0.65 - 1.69) nmol i.t, the “Response (ED50) with 95% confidence limits, Cold plate” value ([6]; day 7 after CCI) was 1.14 (0.74 - 1.77) nmol i.t and the “antinociceptive potency relative to i.p. administered morphine” value [7] was 3.7 times. For the same compound, the “cross tolerance with morphine” value [8] was “cross tolerance”, the “antinociceptive effect in acute pain” value [2] was 30 % MPE and the toxic effect [2] was “seizures and death of animals”. The “Response (ED50) with 95% confidence limits, Tail-flick” value [2] was 1.66 (1.11-2.51) nmol i.t and the “effect in tail-flick test” value [2] was “increase the nociceptive threshold”.

In the case of CC(=O)N[C@H]1Cc2ccccc2CN(CC(=O)N(C)Cc2cc(C(F)(F)F)cc(C(F)(F)F)c2)C1=O [Compound 6, Ac-Aba-Gly-NMe-3’,5’-(CF3)2-Bn], the “antiallodynic activity” value ([1]; i.t., day 7 after CCI) was “significantly more potent than the opioid parent compounds”, the “activity in tail-flick test after i.v. administration” value ([9]; doses up to 1.21 μmol/kg i.v., not shown) was “did not show any activity at all; also recorded: not active at all” and the “effect on hyperalgesia” value ([6]; i.t., day 7 after CCI) was “more potent in antagonizing hyperalgesia than hybrid 4 and approximately similar to 22”. For the same compound, the “effect in tail-flick test” value [2] was “very weak”.

With Cc1cc(O)cc(C)c1C[C@H](N)C(=O)N[C@H](CCCNC(=N)N)C(=O)N[C@H]1Cc2ccccc2CN(CC(=O)N(Cc2cc(C(F)(F)F)cc(C(F)(F)F)c2)CC(C)C)C1=O [Compound 27, H-Dmt-D-Arg-Aba-Gly-NiBu-3’,5’-(CF3)2-Bn] the IC50 ([10]; read-out: GPI (IC50 nM), representative of MOR activation) was 19.7 nM.

In the case of Cc1cc(O)cc(C)c1C[C@H](N)C(=O)N[C@H](CCCNC(=N)N)C(=O)N[C@H]1Cc2ccccc2CN(CC(=O)N(Cc2ccccc2)CC(C)C)C1=O [Compound 28, H-Dmt-D-Arg-Aba-Gly-NiBu-Bn], the GPI agonist character ([10]; GPI) was “P.A ^e”.

With Cc1cc(O)cc(C)c1C[C@H](N)C(=O)N[C@H](CCCNC(=N)N)C(=O)N[C@H]1Cc2ccccc2CN(CCC(N)=O)C1=O [Compound 33, H-Dmt-D-Arg-Aba-β-Ala-NH2] the toxic effect ([1]; 1 nmol i.t., CCI rats) was “toxic effect”, the “antinociceptive response” value ([9]; 1.21 μmol/kg i.v., mice) was “largely exceeded that of morphine” and the “duration of antinociceptive effect” value [2] was 2 h. For the same compound, the “effect in tail-flick test” value [2] was “increase the nociceptive threshold” and the “shift in DOR potency” value [11] was 10 fold.

In the case of Cc1cc(O)cc(C)c1C[C@H](N)C(=O)N[C@H](CCCNC(=N)N)C(=O)N[C@H]1Cc2ccccc2CN(CCC(=O)N(C)Cc2ccccc2)C1=O [Compound 22, H-Dmt-D-Arg-Aba-β-Ala-NMe-Bn], the toxic effect ([1]; 1 nmol i.t., CCI rats) was “not observed”, the “attenuation of allodynia, von Frey” value ([1]; 1 nmol i.t., day 7 after CCI) was 80 % MPE and the toxic signs ([1]; i.t., CCI rats, doses up to 11 nmol) was “lack of toxic signs”. For the same compound, the “Response (ED50) with 95% confidence limits, von Frey” value ([1]; day 7 after CCI) was 0.24 (0.18 - 0.32) nmol i.t, the “loss in antagonism potency” value [12] was 1.5 log unit and the DOR binding increase ([3]; vs 21) was 10 factor. For the same compound, the toxicity ([6]; 10 nmol i.t., not shown) was “lacking toxicity”, the “Response (ED50) with 95% confidence limits, Cold plate” value ([6]; day 7 after CCI) was 0.34 (0.25 - 0.46) nmol i.t and the “antinociceptive effect by area under curve” value [13] was “most potent antinociceptive effect”. For the same compound, the “effect of a single dose in rats rendered tolerant to morphine” value ([8]; 22 1 nmol i.t. after repeated morphine 3.5 nmol) was “not effective”, the “cross tolerance with morphine” value [8] was “cross tolerance” and the “improvement of NK1R binding affinity” value ([5]; vs 21) was “approximately 4 times”. For the same compound, the “improvement of in vitro agonism at MOR” value ([10]; vs 21) was 6 fold, the “antinociceptive effect in acute pain” value [2] was 30 % MPE and the toxic effect [2] was “did not induce a toxic effect”. The “Response (ED50) with 95% confidence limits, Tail-flick” value [2] was 2.78 (1.80-4.30) nmol i.t, the “duration of antinociceptive effect” value [2] was 2 h and the “effect in tail-flick test” value [2] was “increase the nociceptive threshold”.
